Like-named read-outs stand apart in the source and are kept apart here.
Experiments:
[1] = test system: HepG2-A16-CD81EGFP cells; settings: human, 50 uM
[2] = test system: HepG2-A16-CD81EGFP cells; test: cells; settings: Homo sapiens, HepG2, read-out: % inhibition
[3] = test system: Plasmodium berghei (Pb-Luc) exoerythrocytic-stage parasites; test: microbe, parasite or virus in culture
[4] = read-out: Inhibition% @ 50 uM rep1
[5] = read-out: Inhibition% @ 50 uM rep2

SMILES	HepG2 Tox% @ 50 uM rep1 [1] [%]	inhibition at 50 µM [2] [%]	inhibition at 50 µM [3, 4] [%]	inhibition at 50 µM [3, 5] [%]	HepG2 Tox% @ 50 uM rep2 [1] [%]
COc1ccc(CCNC(=O)c2cc(S(=O)(=O)N3CC(C)CC(C)C3)ccc2Sc2ccc(F)cc2)cc1OC (centres unmarked) [MMV007557]	-12	-11.7	19	15	
CCOc1ccc(-n2cc(-c3ccccc3)c3c(SCc4cc(C)ccc4C)ncnc32)cc1 [MMV085471]	-12	-12.2	11	-7	
CCC(c1ccccc1)c1nn2c(-c3cccs3)nnc2s1 (centres unmarked) [MMV665876]		93.6	99	103	96
OC(CNC1CCCCC1)Cn1c2ccccc2c2ccccc21 (centres unmarked) [MMV009063]		98.6	104	105	101
CCN1CCN(Cc2ccc(NC(=O)c3cc4ccc5cccnc5c4[nH]3)cc2)CC1 [MMV020548]		98.4	102	106	100
COc1ccc(Nc2nc(NCc3ccccc3)c3ccccc3n2)cc1 [MMV000963]		99.3	103	106	100
CCC(=O)Nc1nnc(Cc2ccc(OC)c(OC)c2)s1 [MMV020942]	-26	-25.5	-19	-37	
CCC(C)NCC(O)(c1ccc(Cl)cc1)c1ccc(Cl)cc1 (centres unmarked) [MMV665928]		99.2	104	106	102
COc1ccc(OC)c(C2C3=C(CC(C)(C)CC3=O)N(c3ccc(Cl)c(Cl)c3)C3=C2C(=O)CC(C)(C)C3)c1 [MMV007208]		-4.26	-11	-11	
CCOc1ccc2c(c1)CN(Cc1ccc(Cl)cc1)CO2 [MMV000443]		95.5	102	104	
Cc1cc(N2CCCC2)nc(Nc2ccc(NC(=O)CCc3ccccc3)cc2)n1 [MMV396669]		96.9	103	103	
Nc1ccn([C@@H]2O[C@H](CO)[C@@H](O)[C@H]2O)c(=O)n1 [MMV638723]		3.04	30	19	
O=c1cc(NC2CCN(CCCc3ccccc3)CC2)c2cc(Cl)ccc2o1 [MMV665786]		80.6	100	103	
COc1ccc(C2C(C(=O)Nc3cccc(OC)c3)c3ccccc3C(=O)N2C2CCCCC2)cc1 (centres unmarked) [MMV008455]		28	94	92	
O=C1c2ccccc2C2=Nc3ccccc3SC(c3cccc(F)c3)C12 (centres unmarked) [MMV006389]		96.2	102	103	
Cc1cccc(N2C(=O)C3C(C2=O)C2(c4ccccc4)C(=O)C3(c3ccccc3)C(c3ccc4c(c3)OCO4)=C2c2ccc3c(c2)OCO3)c1 (centres unmarked) [MMV007228]		-4.28	57	57	
CCCCN(CCCC)S(=O)(=O)c1ccc(NC(=O)c2ccco2)cc1 [MMV007881]		94.7	98	99	
CCCCCCc1cc2cc(-c3csc(C=Cc4ccccc4)n3)c(=O)oc2cc1O [MMV666692]		99.5	104	104	
OC(Cn1nnc2ccccc21)Cn1c2ccc(Br)cc2c2cc(Br)ccc21 (centres unmarked) [MMV666025]		43.6	99	97	
COc1ccc2sc(N(Cc3cccnc3)C(=O)c3ccc(C#N)cc3)nc2c1 [MMV001239]		63.2	73	85	
CCN(CC)CCCNc1ccnc2cc3ccccc3cc12 [MMV665783]		31.7	90	95	
CCOc1ccccc1NC(=O)CN1CCN(C(=O)c2ccco2)CC1 [MMV007791]		-15	16	43	

SMILES	HepG2 Tox% @ 50 uM rep1 [1] [%]	inhibition at 50 µM [2] [%]	inhibition at 50 µM [3, 4] [%]	inhibition at 50 µM [3, 5] [%]	HepG2 Tox% @ 50 uM rep2 [1] [%]
COc1ccc(CN2CCCC(C(=O)c3ccc(C(F)(F)F)cc3)C2)c(O)c1 (centres unmarked) [MMV666060]		94.3	104	104	
Cc1ccccc1OCCSc1nc2ccc(NC(=O)c3ccccc3)cc2s1 [MMV007577]		67.4	103	103	
Cn1c(C(=O)c2cccc3ccccc23)nc2ccccc21 [MMV665824]		35.6	96	98	
CCCn1c(=N)c(C(=O)NC2CCCCC2)cc2c(=O)n3cccc(C)c3nc21 [MMV008829]		-21	54	45	
CCc1ccc(CNCC(O)c2ccccc2)cc1 (centres unmarked) [MMV665812]		94.8	98	99	
COc1ccc(-c2cc(=O)oc3c4c(ccc23)OCN(Cc2ccc(F)cc2)C4)cc1 [MMV000604]		57.1	100	101	
Cc1nc2ccccc2c(O)c1CC=C(Cl)Cl [MMV665994]		31.7	100	102	
COc1ccc(-c2cn3c(C(=O)Nc4ccccc4Cl)c(-c4ccccc4)c4c3n2CCCC4)cc1 [MMV020403]		52.5	102	103	
Clc1ccc2c(N3CCCC3)ccnc2c1 [MMV007363]		39.1	91	94	
COc1cccc(Nc2nc(N)c3ccccc3n2)c1 [MMV019199]		88.3	98	99	
CN1C=C(c2ccc3ccccc3n2)C(c2c[nH]c3ccccc23)c2ccccc21 (centres unmarked) [MMV008160]		91.2	103	104	
COc1ccc(C=C2SC(Nc3ccccc3)=NC2=O)cc1 [MMV665836]		83.2	103	103	
COC(=O)c1ccc(Cl)c2c1C1C=CCC1C(c1cccc3ccccc13)N2 (centres unmarked) [MMV667489]		61.4	97	99	
Cc1ccccc1OCCSc1nc2ccc(NC(=O)c3cccs3)cc2s1 [MMV007396]		37.1	103	104	
CCCCCCC(O)(c1ccc(F)cc1)C(CN1CCOCC1)c1ccccc1 (centres unmarked) [MMV000621]		98.1	104	103	
COc1cc(C(=O)Nc2ccc(-c3nc4ccccc4[nH]3)cc2)cc(OC)c1OC [MMV665898]		69.9	99	101	
Oc1ccc(Br)cc1CN1CCN(Cc2ccc(Cl)cc2)CC1 [MMV665809]		93.9	103	103	
OC1=C2C(=Nc3ccccc3SC2c2ccc(Br)cc2)c2ccccc21 (centres unmarked) [MMV007127]		64.3	103	103	
Nc1nc(Nc2cccc(F)c2)nc2ccccc12 [MMV080034]		81.8	102	103	
O=C(Nc1ccc(C23CC4CC(CC(c5ccccc5)(C4)C2)C3)cc1)c1cccs1 [MMV007574]		83.6	103	103	
OC1CCCCC1C1(NC(=S)Nc2ccccc2)CCCCC1 (centres unmarked) [MMV665980]		82.2	104	104	
CCn1c2c(c(=N)c3c1CCC3)CCCC2 [MMV000340]		75.3	102	102	
